For one molecule, IC50 results are on record in ChEMBL document CHEMBL3639008, “Pyridopyrazines as highly selective ras-Raf-Mek-Erk signal transduction pathway inhibitors” (2014).

In the test the target is Mitogen-activated protein kinase 1 (Homo sapiens, UniProt P28482). The test is described as follows: Cell-Free Kinase Assays: The inhibitory effect of the compounds according to the invention was tested on various serine/threonine, tyrosine and lipid kinases in enzymatic assays. Recombinant human kinases such as, for example, Erk2, were used in this case, partly as full-length kinases, partly as shortened fragments, but at least consisting of the functional kinase domains. The commercial kinase proteins (Proqinase, Upstate) were used as recombinant fusion proteins with GST (glutathion-S-transferase) or His-Tag. Depending on the type of substrate, the various kinase reactions were quantified by means of suitable ALPHA beads (Perkin-Elmer). MAPK-ALPHAs (e.g. Erk2): the test substance, 0.625 ng Erk2 (#14-173, Upstate), 10 uM ATP and 15 nM biotinylated MBP (myelin basic protein) substrate were incubated on a 384-well Optiplate (Perkin-Elmer) in a volume of 15 ul for 1 h in 25 mM Tris, 10 mM MgCl2, 0.1% Tween-20, 100 uM NaVO4, 2 mM DTT at pH 7.5.
Chain of Mitogen-activated protein kinase 1 (P28482 whole entry, the tested form may be a part): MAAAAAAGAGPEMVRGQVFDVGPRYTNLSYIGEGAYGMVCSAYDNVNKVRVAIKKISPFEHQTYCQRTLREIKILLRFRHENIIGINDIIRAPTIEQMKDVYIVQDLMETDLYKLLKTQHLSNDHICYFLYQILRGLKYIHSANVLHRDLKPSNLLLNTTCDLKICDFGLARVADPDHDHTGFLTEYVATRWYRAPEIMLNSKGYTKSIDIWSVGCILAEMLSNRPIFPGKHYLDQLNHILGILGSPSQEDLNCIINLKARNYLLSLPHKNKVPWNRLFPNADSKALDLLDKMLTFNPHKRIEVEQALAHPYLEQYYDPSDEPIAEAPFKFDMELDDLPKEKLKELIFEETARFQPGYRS

By IC50 is commonly meant the concentration at which inhibition is half-maximal. In the case of `O=C(NCCCCc1ccccc1)Nc1ccc2ncc(-c3cnn(CC(F)F)c3)nc2n1`, the IC50 came out at 2 nM.
